What is called MIC is the smallest concentration in the dilution series that meets the test's criterion for growth inhibition.

Here are results for 24 molecules from US10865216B2, “Tricyclic Gyrase inhibitors” (MERCK SHARP & DOHME CORP., priority 2012, dated 2020).

In brackets after ≈: the same amount, converted by molar mass. Like-named read-outs stand apart in the source and are kept apart here.

One assay relates to E. coli ATCC 25922. As to the kind of experiment: MIC, E. coli ATCC 25922. In kind it is cell-based. Particulars: for MIC: Escherichia coli.
The subject of a further assay is S. aureus ATCC 13709. Description: MIC, S. aureus ATCC 13709. It is filed as cell-based. Particulars: for MIC: Staphylococcus aureus.
[1] abbreviates: E. coli, Alamar Blue read after overnight incubation at 35° C.
Setting [2] is: S. aureus, Alamar Blue read after overnight incubation at 35° C.
[3] abbreviates: ATCC25922, E. coli, Alamar Blue read after overnight incubation at 35° C., read-out: MIC Ec.
Setting [4] is: ATCC13709, S. aureus, Alamar Blue read after overnight incubation at 35° C., read-out: MIC Sa.

Consider `CNc1cc(F)cc2c1[nH]c1nc(Oc3cncnc3)nc(N3C4CCC3CC(N)C4)c12` (stereo not drawn) [Compound 4.025], for which the “MIC Ec” value against E. coli ATCC 25922 (setting [1]) was 2 mg/L (≈ 4.6 µM). The “MIC Sa” value in the assay on S. aureus ATCC 13709 (setting [2]) was not above 0.5 mg/L.
Regarding `CNc1cc(F)cc2c1[nH]c1nc(Oc3cnc(SC)nc3)nc(N3CC4CCC(N)C4C3)c12` (stereo not drawn) [Compound 4.200], the “MIC Ec” value in the assay with E. coli ATCC 25922 (setting [1]) was not above 0.5 mg/L. The “MIC Sa” value against S. aureus ATCC 13709 (setting [2]) was not above 0.5 mg/L.
On to `CNc1cc(F)cc2c1[nH]c1nc(Oc3cnc(C)nc3)nc(N3CC(N)C(C(=O)NCCN4CCOCC4)C3)c12` (stereo not drawn) [drawing 1823], for which the MIC is more than 16 mg/L with E. coli ATCC 25922 (ATCC25922, Table 16, new R4 substituents, EC8 not defined, read-out: EC8 MIC) and 16 mg/L (≈ 28.3 µM) in the assay with S. aureus ATCC 13709 (ATCC13709, Table 16, new R4 substituents, read-out: SA MIC).
On to `CNc1cccc2c1[nH]c1nc(Oc3cncnc3)cc(N3CCN(Cc4ccccn4)CC3)c12` [Compound 3.54], for which the MIC was more than 32 mg/L in the assay with E. coli ATCC 25922 (setting [3]) and 8 mg/L (≈ 17.1 µM) with S. aureus ATCC 13709 (setting [4]).
For `CNc1cccc2c1[nH]c1nc(Sc3cnc4nccnc4c3)nc(N3CC4C(N)C4C3)c12` (stereo not drawn) [Compound 1.16] the same measures were 1 mg/L (≈ 2.2 µM) and not above 0.5 mg/L.
In the assay with E. coli ATCC 25922 (Table 18, Ec), `CNc1cc(F)c(F)c2c1[nH]c1nc(Oc3cnc([C@H](C)O)nc3)nc(N3C[C@H]4C[C@@H]3C[C@H]4N)c12` [Compound 10.25] returned an MIC Ec not above 0.5 mg/L. Further, the MIC Sa with S. aureus ATCC 13709 (Table 18, Sa) was not above 0.5 mg/L.
As to `CNc1cc(F)cc2c1[nH]c1nc(Oc3cncc(C(N)=O)c3)nc(N3CC4C(N)C4C3)c12` (stereo not drawn) [Compound 4.237], the “MIC Ec” value with E. coli ATCC 25922 (setting [1]) was 2 mg/L (≈ 4.46 µM). The “MIC Sa” value against S. aureus ATCC 13709 (setting [2]) was not above 0.5 mg/L.
With `CNc1cccc2c1[nH]c1nc(Oc3cncnc3)cc(N3CCC4(CC4N)C3)c12` (stereo not drawn) [Compound 3.41], the MIC in the assay with E. coli ATCC 25922 (setting [3]) and with S. aureus ATCC 13709 (setting [4]) was not above 0.5 mg/L throughout.
Consider `CNc1cc(F)cc2c1[nH]c1nc(Oc3cnc(SC)nc3)nc(N3CCC4(CC4N)C3)c12` (stereo not drawn) [Compound 4.195], for which the “MIC Ec” value in the assay with E. coli ATCC 25922 (setting [1]) turned out to be 1 mg/L (≈ 2.14 µM). Moreover, in the assay with S. aureus ATCC 13709 (setting [2]), the “MIC Sa” value is not above 0.5 mg/L.
Consider `CNc1cccc2c1[nH]c1nc(Sc3cnc4ccc[n+]([O-])c4c3)nc(N3CC4C(N)C4C3)c12` (stereo not drawn) [Compound 1.66], for which, in the assay with E. coli ATCC 25922 (setting [1]), the “MIC Ec” value is not above 0.5 mg/L. Also, the “MIC Sa” value with S. aureus ATCC 13709 (setting [2]) was not above 0.13 mg/L.
With `CNc1cccc2c1[nH]c1nc(Oc3cncc(OC)c3)cc(N3CC4C(N)C4C3)c12` (stereo not drawn) [Compound 3.35], the MIC is 1 mg/L (≈ 2.4 µM) in the assay with E. coli ATCC 25922 (setting [3]) and not above 0.5 mg/L with S. aureus ATCC 13709 (setting [4]).
Regarding `CNc1cc(F)cc2c1[nH]c1nc(Oc3cnc(C)nc3)nc(N3C[C@H](N)C[C@@H]3C)c12` [Compound 4.115], the “MIC Ec” value in the assay on E. coli ATCC 25922 (setting [1]) is 8 mg/L (≈ 18.9 µM). In addition, in the assay on S. aureus ATCC 13709 (setting [2]), the “MIC Sa” value amounted to 1 mg/L (≈ 2.37 µM).
Regarding `CNc1cc(F)cc2c1[nH]c1nc(Oc3cnc4ccoc4c3)nc(N3C[C@H]4CCN[C@H]4C3)c12` [Compound 10.14], in the assay on E. coli ATCC 25922 (Table 18, Ec), the MIC Ec was not above 0.5 mg/L. For the same molecule, the MIC Sa against S. aureus ATCC 13709 (Table 18, Sa) was not above 0.5 mg/L.
Take `CNc1cc(F)cc2c1[nH]c1nc(Oc3cnc(C)nc3)nc(N3CCNCC3)c12` [Compound 4.163]: the “MIC Ec” value in the assay with E. coli ATCC 25922 (setting [1]) was not above 0.5 mg/L. Also, the “MIC Sa” value against S. aureus ATCC 13709 (setting [2]) is not above 0.5 mg/L.
Regarding `COc1cccc2c1[nH]c1nc(Oc3cncnc3)nc(N3CCC(NC(C)=O)C3)c12` (stereo not drawn) [Compound 2.11], in the assay with E. coli ATCC 25922 (setting [1]), the “MIC Ec” value is more than 64 mg/L. Besides, in the assay on S. aureus ATCC 13709 (setting [2]), the “MIC Sa” value turned out to be 4 mg/L (≈ 9.54 µM).
Regarding `CNc1cccc2c1[nH]c1nc(Sc3cnc4cccnc4c3)nc(N3CCC[C@@H](N)C3)c12` [Compound 1.37], the MIC in the assay with E. coli ATCC 25922 (setting [3]) was 4 mg/L (≈ 8.76 µM); in the assay with S. aureus ATCC 13709 (setting [4]), 1 mg/L (≈ 2.19 µM).
`CNc1cc(F)cc2c1[nH]c1nc(Oc3cnc(C)nc3)nc(N3CC(N)C(C(=O)N4CCOCC4)C3)c12` (stereo not drawn) [Compound 4.438]: the MIC in the assay on E. coli ATCC 25922 (setting [3]) came out at 16 mg/L (≈ 30.7 µM); with S. aureus ATCC 13709 (setting [4]), 1 mg/L (≈ 1.92 µM).
`CNc1cc(F)c(F)c2c1[nH]c1nc(Oc3cnc(C(C)O)nc3)nc(N3CC4(CCCC4N)C3)c12` (stereo not drawn) [Compound 10.103] gave an MIC Ec against E. coli ATCC 25922 (Table 18, Ec) not above 0.5 mg/L. Also, the MIC Sa in the assay on S. aureus ATCC 13709 (Table 18, Sa) was not above 0.5 mg/L.
Consider `CNc1cccc2c1[nH]c1nc(Sc3ccc4ccc(C(=O)O)nc4c3)nc(N3CC4C(N)C4C3)c12` (stereo not drawn) [Compound 1.74], for which the MIC in the assay with E. coli ATCC 25922 (setting [3]) is more than 64 mg/L; with S. aureus ATCC 13709 (setting [4]), 4 mg/L (≈ 8.04 µM).
On to `CNc1cc(F)cc2c1[nH]c1nc(Oc3cnc(N(C)C)nc3)nc(N3CC4C(N)C4C3)c12` (stereo not drawn) [Compound 4.208], for which, in the assay with E. coli ATCC 25922 (setting [1]), the “MIC Ec” value is not above 0.5 mg/L. Also, the “MIC Sa” value against S. aureus ATCC 13709 (setting [2]) is not above 0.5 mg/L.
For the molecule `CNc1cc(F)c(Br)c2c1[nH]c1nc(Oc3cnc(C)nc3)nc(N3C[C@H]4C[C@@H]3C[C@H]4N)c12` [Compound 10.68], in the assay on E. coli ATCC 25922 (Table 18, Ec), the MIC Ec was not above 0.5 mg/L. In the assay with S. aureus ATCC 13709 (Table 18, Sa), this molecule registered an MIC Sa not above 0.5 mg/L.
As for `CNc1cc(F)cc2c1[nH]c1nc3nc(c12)NCCCCCCNC(=O)c1cncc(c1)O3`, the MIC in the assay with E. coli ATCC 25922 (ATCC25922, Table 15, R2 is joined to R4, EC8 not defined, read-out: EC8 MIC) is 1 mg/L (≈ 2.22 µM); in the assay with S. aureus ATCC 13709 (ATCC13709, Table 15, R2 is joined to R4, read-out: SA MIC), not above 0.5 mg/L.
As to `CNc1cc(F)cc2c1[nH]c1nc(Oc3cnc4[nH]cnc4c3)nc(N3CC4C(N)C4C3)c12` (stereo not drawn) [Compound 4.311], the “MIC Ec” value against E. coli ATCC 25922 (setting [1]) was more than 16 mg/L. In addition, the “MIC Sa” value against S. aureus ATCC 13709 (setting [2]) was found to be 4 mg/L (≈ 8.98 µM).
Consider `CNc1cc(F)cc2c1[nH]c1nc(Oc3cnc4c(ccn4C)c3)nc(N3CC4CC(N)C4C3)c12` (stereo not drawn) [Compound 4.328], for which the “MIC Ec” value in the assay on E. coli ATCC 25922 (setting [1]) worked out at 1 mg/L (≈ 2.12 µM). For the same molecule, the “MIC Sa” value against S. aureus ATCC 13709 (setting [2]) is not above 0.5 mg/L.
